The text below walks through data of US11180449B2, “Crystal form of key intermediate of bruton tyrosine kinase (BTK) inhibitor and preparation method thereof” (SHANGHAI ZAIQI BIO-TECH CO., LTD., priority 2019, dated 2021).

Data set [1] in a line: Stability comparison between crystal forms I and II (influence factors: light, temperature, humidity). The format is physicochemical. As to conditions: for change of purity of the compound: 10 days under light, 30° C. and 40° C., 75% RH and 90% RH.
A short description of data set [2]: Special stability of crystal form II (grinding, heating, tableting). It is filed as physicochemical. From the text:
The crystal form II of a compound of formula (I) prepared according to the method of Example 2 was subjected to grinding, heating and tableting.

Entries after “also recorded” stand apart in the source; their conditions may differ.

For `CCOC(=O)c1c(C#N)c(-c2ccc(Oc3c(F)cccc3F)cc2)cn1[C@@H]1CCN(C(=O)OC(C)(C)C)C1` [Crystal form I], the “purity of the compound, 30° C.” value in data set [1] (day 0) stood at 99.31%; in data set [1] (day 5), 99.23%; in data set [1] (day 10) it was 99.10%; in data set [1] (day 30), 98.87%. Also, the “purity of the compound, 40° C.” value in data set [1] (day 0) came to 99.31%; in data set [1] (day 5), 99.18%; in data set [1] (day 10), 99.05%; in data set [1] (day 30) it was 95.01%. Besides, the “change of purity of the compound” value in data set [1] is “not obviously changed”. Moreover, the “purity of the compound, Illumination” value in data set [1] (open condition, day 0) was 99.31%; in data set [1] (open condition, day 5), 97.75%; in data set [1] (open condition, day 10) it was 95.53%; in data set [1] (open condition, day 30), 85.76%. Moreover, the “purity of the compound, RH75%” value in data set [1] (day 0) came out at 99.31%; in data set [1] (day 5), 99.18%; in data set [1] (day 10) it was 98.97%; in data set [1] (day 30), 97.41%. The “purity of the compound, RH90%” value in data set [1] (day 0) turned out to be 99.31%; in data set [1] (day 5) it was 98.91%; in data set [1] (day 10) it was 98.51%; in data set [1] (day 30) it was 95.91%. The “crystal form re-tested after the influence factor experiment” value in data set [1] is on record as “not changed”.
Turning to `CCOC(=O)c1c(C#N)c(-c2ccc(Oc3c(F)cccc3F)cc2)cn1[C@@H]1CCN(C(=O)OC(C)(C)C)C1` [Crystal form II], the “XRD detection (crystal form after treatment)” value in data set [2] (Grinding for 10 min in a mortar under nitrogen protection) and in data set [2] (Tableting) was “Crystal” throughout. In addition, the “stability of the crystal form under mechanical treatment” value in data set [2] (grinding, heating and tableting (pressure)) is given as “good stability; also recorded: stable”. In addition, the “purity of the compound, 30° C.” value in data set [1] (day 0) is 99.73%; in data set [1] (day 5), 99.72%; in data set [1] (day 10) it was 99.72%; in data set [1] (day 30) it was 99.67%. The “purity of the compound, 40° C.” value stood at 99.73% in data set [1] (day 0), 99.68% in data set [1] (day 5), 99.65% in data set [1] (day 10) and 99.60% in data set [1] (day 30). Moreover, the “change of purity of the compound” value in data set [1] is given as “not obviously changed”. In addition, the “purity of the compound, Illumination” value in data set [1] (open condition, day 0) is reported as 99.73%; in data set [1] (open condition, day 5), 99.56%; in data set [1] (open condition, day 10), 99.43%; in data set [1] (open condition, day 30), 99.21%. In addition, the “purity of the compound, RH75%” value in data set [1] (day 0) is on record as 99.73%; in data set [1] (day 5), 99.72%; in data set [1] (day 10), 99.68%; in data set [1] (day 30), 99.64%. In addition, the “purity of the compound, RH90%” value in data set [1] (day 0) came to 99.73%; in data set [1] (day 5), 99.71%; in data set [1] (day 10), 99.61%; in data set [1] (day 30), 99.53%. In addition, the “crystal form re-tested after the influence factor experiment” value in data set [1] is listed as “not changed”. Further, in data set [1] (open condition, light, high temperature and high humidity), the “stability compared with crystal form I (amorphous sample)” value is recorded as “significantly better”.
